The values that follow come from patent publication EP4467141A1, “PYRAZOLO-QUINOLINES AS SELECTIVE INHIBITORS OF GENOTOXIC STRESS-INDUCED IKK/NF- KB PATHWAYS FOR CANCER THERAPY” (Max-Delbrück-Centrum für Molekulare Medizin in der …, priority 2023, dated 2024).

Broadly, the inhibition is the change of the read-out against control, counted positive when it falls. The term IC50 denotes the point on the concentration scale where inhibition reaches its midpoint.

Read-outs that look alike come from different tables or passages of the source. Where only a bound is given, the exact number is not on record here.

What all share (assay): Kinase panel study
Common to all, as to assay type: biochemical
Holding throughout (details): for inhibition at 1 µM: 1000nM

In one test the target is T1, AKT3 (PKB gamma) (Homo sapiens, UniProt Q9Y243).
T1 construct: purchased Thermo Fisher Scientific
The method, then:
(§1) The Kinase panel study was entirely provided by Thermo Fisher Scientific using the two lead compounds MW01 and MW05 as well as their derivatives (MW01-E06, MW01-E10, MW01-E14, MW01-E18, MW05-E2, MW05-E3, MW05-E9 and MW05-E10. The experiment was performed using the ZLyte or Adapta protocol according to manufacturer standard operating procedures.
(§2) Based on their similar effects in our screen and molecular analysis, MW01 and MW05 were used in comparative target deconvolution studies seeking common targets despite their distinct structures. To eliminate previously identified kinases regulating NF-κB activity, such as IKK, as possible targets of MW01 and MW05, an in vitro kinase inhibition assay was performed. […] We next investigated if any of the shared kinase targets of MW01 and MW05 play a role in genotoxic stress-induced NF-κB activity and established several criteria to narrow down pathway-relevant targets. Considering the similar NF-κB inhibition phenotypes of both compounds, we hypothesized first that the target should be shared by both lead compounds. Second, based on the CaCo2 recovery values and experimental treatment concentration of 10 µM), the putative target kinase should have a low IC50 of, at most, 2000 nM for both lead compounds in the in vitro kinase panel (Fig. 2A). Based on these criteria alone, we arrived at a relatively short list of potential targets for further analysis, leaving only PIK3CG, PIK3C2G, and CLK2 (Fig. 2B). IC50 values for PIK3C2G by both lead compounds agreed best with these criteria, but RNA expression analysis indicates high tissue specificity as well as lack of expression of this kinase in our U2-OS model cell line, which we then eliminated from further analysis (Uhlén et al., 2015). […] Table 6: Percentage of inhibition of the indicated kinases by MW01 or MW05 at either 10 µM or 1 µM. n.d. = not determined.

In the next test the target is T2, MAP4K2 (GCK) (Homo sapiens, UniProt Q12851).
T2 construct: purchased Thermo Fisher Scientific
T2 sequence (Q12851 1-820): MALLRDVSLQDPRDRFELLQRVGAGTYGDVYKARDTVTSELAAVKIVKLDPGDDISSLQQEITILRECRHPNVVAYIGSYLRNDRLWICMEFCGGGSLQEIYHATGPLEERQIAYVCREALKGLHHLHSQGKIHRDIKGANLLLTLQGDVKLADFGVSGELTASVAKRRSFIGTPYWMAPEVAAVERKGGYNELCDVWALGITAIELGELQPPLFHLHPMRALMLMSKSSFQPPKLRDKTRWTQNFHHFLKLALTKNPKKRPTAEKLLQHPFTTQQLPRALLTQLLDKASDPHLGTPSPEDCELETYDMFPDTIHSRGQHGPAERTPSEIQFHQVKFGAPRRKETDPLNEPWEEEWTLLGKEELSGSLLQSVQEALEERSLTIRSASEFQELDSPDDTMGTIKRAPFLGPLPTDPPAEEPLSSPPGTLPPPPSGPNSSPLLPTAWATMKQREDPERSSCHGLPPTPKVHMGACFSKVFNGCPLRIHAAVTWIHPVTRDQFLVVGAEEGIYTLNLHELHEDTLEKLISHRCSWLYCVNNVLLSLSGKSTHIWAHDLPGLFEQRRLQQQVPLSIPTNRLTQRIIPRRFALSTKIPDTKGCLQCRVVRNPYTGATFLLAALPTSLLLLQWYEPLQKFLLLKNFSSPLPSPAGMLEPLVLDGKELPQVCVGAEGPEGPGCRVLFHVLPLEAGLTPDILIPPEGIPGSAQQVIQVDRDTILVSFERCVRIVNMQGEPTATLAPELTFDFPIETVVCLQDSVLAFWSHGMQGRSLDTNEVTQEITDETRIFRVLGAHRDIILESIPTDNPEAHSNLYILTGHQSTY
The protocol:
as §1, §2

A further test deals with T3, IRAK4 (Homo sapiens, UniProt Q9NWZ3).
T3 construct: purchased Thermo Fisher Scientific
T3 sequence (Q9NWZ3 1-460): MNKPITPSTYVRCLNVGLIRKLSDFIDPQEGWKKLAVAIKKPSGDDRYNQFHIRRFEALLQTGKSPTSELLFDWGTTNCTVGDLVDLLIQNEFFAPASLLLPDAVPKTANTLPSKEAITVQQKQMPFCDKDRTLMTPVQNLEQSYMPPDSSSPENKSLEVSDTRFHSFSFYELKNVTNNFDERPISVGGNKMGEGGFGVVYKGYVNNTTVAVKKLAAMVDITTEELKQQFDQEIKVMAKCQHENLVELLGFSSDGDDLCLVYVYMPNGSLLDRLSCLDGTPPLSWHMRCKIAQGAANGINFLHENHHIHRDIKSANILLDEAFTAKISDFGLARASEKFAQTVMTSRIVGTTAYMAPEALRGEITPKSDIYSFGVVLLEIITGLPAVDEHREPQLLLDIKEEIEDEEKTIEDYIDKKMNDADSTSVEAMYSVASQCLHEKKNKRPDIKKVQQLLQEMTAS
The protocol:
as §1, §2

In another test the target is T4, AKT2 (PKB beta) (Homo sapiens, UniProt P31751).
T4 construct: purchased Thermo Fisher Scientific
The protocol: as §1, §2

The next test has as its target T5, FRAP1 (mTOR) (Homo sapiens, UniProt P42345).
T5 construct: purchased Thermo Fisher Scientific
The protocol: as §1, §2

The target in a further test is T6, DYRK1B (Homo sapiens, UniProt Q9Y463).
T6 construct: purchased Thermo Fisher Scientific
The method, then:
as §1, §2

The target in a further test is T7, PIP4K2A (Homo sapiens, UniProt P48426).
T7 construct: purchased Thermo Fisher Scientific
T7 sequence (P48426 1-406): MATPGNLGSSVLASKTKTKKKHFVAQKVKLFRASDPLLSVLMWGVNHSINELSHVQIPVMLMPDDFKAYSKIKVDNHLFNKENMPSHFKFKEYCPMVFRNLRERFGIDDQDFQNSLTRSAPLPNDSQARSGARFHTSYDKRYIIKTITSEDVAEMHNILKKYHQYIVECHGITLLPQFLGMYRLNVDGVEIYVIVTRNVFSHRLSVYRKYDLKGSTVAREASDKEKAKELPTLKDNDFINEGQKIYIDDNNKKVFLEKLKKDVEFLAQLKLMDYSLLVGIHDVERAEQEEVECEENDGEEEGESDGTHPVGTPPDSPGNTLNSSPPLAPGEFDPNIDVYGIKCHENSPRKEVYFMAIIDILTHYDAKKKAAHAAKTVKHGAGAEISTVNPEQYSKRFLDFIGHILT
The protocol: as §1, §2

Another test addresses T8, DNA-PK (Homo sapiens, UniProt P78527).
T8 construct: purchased Thermo Fisher Scientific
The method, then:
as §1, §2

A further test concerns the target T9, EGFR (ErbB1) (Homo sapiens, UniProt P00533).
T9 construct: purchased Thermo Fisher Scientific
The protocol:
as §1, §2

Setting [1] is: read-out: Percentage of inhibition.
Where [2] appears, read: 10000nM, read-out: Percentage of inhibition.
The mark [3] stands for this setting: in vitro kinase panel, sub-2000 nM criterion.
[4] abbreviates: AKT3 (PKB gamma), compound at 10µM, read-out: % of Inhibition.
Setting [5] is: MAP4K2 (GCK), compound at 10µM, read-out: % of Inhibition.
The mark [6] stands for this setting: IRAK4, compound at 10µM, read-out: % of Inhibition.
The mark [7] stands for this setting: AKT2 (PKB beta), compound at 10µM, read-out: % of Inhibition.
[8] abbreviates: FRAP1 (mTOR), compound at 10µM, read-out: % of Inhibition.
The mark [9] stands for this setting: DYRK1B, compound at 10µM, read-out: % of Inhibition.
Setting [10] is: PIP4K2A, compound at 10µM, read-out: % of Inhibition.
[11] abbreviates: DNA-PK, compound at 10µM, read-out: % of Inhibition.
[12] abbreviates: EGFR (ErbB1), compound at 10µM, read-out: % of Inhibition.

T4 sequence (P31751 whole entry): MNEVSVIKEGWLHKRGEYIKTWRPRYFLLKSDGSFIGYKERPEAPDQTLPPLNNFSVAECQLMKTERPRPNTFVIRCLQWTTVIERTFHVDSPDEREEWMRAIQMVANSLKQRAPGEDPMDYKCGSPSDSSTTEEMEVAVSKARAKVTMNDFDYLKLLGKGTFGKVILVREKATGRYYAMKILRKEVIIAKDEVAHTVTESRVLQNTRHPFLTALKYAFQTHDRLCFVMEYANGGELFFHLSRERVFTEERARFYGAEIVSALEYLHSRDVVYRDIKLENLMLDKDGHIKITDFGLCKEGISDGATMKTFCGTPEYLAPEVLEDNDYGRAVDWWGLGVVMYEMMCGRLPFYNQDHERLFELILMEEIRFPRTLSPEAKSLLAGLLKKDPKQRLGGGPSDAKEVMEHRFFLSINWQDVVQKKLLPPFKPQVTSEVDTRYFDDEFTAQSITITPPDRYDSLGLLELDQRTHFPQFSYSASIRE
T9 sequence (P00533 25-1210): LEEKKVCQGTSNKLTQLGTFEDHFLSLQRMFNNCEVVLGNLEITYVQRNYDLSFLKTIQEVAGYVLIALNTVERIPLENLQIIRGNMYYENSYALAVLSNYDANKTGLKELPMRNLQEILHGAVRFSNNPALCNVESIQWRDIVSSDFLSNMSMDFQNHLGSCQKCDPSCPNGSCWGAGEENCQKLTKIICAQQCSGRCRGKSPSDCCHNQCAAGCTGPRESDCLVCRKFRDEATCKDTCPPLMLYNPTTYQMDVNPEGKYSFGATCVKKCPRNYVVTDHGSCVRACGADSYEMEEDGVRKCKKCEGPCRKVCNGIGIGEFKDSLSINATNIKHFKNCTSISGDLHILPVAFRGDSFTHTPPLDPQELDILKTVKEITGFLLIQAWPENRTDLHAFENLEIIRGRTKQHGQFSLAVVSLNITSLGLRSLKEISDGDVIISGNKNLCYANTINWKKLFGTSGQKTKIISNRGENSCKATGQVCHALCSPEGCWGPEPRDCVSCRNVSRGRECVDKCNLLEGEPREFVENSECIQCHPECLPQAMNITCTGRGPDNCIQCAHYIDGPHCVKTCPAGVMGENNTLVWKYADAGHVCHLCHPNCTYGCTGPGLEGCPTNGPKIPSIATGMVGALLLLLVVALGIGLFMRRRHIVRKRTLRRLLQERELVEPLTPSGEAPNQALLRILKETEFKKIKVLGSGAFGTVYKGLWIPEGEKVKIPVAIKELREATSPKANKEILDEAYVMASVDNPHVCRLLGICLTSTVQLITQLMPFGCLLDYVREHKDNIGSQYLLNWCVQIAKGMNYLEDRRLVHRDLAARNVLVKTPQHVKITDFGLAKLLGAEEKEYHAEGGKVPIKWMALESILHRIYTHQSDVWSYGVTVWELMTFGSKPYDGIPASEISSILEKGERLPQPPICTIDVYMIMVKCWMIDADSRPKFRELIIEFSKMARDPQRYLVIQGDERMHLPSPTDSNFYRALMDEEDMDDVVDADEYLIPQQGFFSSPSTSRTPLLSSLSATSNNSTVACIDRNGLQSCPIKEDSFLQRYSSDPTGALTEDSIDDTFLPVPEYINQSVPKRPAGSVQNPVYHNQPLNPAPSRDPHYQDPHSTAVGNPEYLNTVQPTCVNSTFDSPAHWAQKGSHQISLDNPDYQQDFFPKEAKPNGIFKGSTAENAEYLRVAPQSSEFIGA
T6 sequence (Q9Y463 whole entry): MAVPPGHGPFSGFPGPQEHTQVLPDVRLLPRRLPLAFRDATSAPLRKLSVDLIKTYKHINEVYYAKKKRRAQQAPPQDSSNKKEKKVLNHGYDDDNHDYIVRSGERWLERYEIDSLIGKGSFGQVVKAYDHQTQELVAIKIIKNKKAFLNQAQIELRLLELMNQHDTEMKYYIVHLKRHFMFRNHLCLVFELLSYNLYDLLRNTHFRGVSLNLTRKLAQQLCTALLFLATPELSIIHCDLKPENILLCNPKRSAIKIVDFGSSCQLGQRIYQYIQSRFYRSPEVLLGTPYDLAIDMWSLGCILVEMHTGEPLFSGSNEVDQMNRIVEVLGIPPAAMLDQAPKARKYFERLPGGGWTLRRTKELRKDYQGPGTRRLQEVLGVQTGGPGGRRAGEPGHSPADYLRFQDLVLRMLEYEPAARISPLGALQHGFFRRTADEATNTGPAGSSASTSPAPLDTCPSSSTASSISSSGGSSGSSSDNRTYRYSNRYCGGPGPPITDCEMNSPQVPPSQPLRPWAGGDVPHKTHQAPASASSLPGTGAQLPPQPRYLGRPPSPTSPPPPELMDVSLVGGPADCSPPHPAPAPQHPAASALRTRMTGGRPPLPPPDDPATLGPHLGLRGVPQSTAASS
T1 sequence (Q9Y243 whole entry): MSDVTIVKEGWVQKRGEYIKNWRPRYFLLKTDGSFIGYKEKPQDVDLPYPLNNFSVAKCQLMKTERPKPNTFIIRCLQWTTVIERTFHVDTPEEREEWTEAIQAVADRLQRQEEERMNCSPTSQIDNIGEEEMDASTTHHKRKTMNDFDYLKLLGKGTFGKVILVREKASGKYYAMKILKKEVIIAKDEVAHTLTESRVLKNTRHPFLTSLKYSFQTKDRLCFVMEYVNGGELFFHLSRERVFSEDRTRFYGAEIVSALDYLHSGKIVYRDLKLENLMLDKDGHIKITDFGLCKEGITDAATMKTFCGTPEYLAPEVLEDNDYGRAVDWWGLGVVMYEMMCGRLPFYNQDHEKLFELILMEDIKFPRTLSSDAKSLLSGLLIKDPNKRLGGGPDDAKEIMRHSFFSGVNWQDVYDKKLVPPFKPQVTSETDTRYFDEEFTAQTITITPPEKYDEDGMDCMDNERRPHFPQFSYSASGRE

With `COc1ccc2c(c1OC)c(=O)n1c3ccc(O)cc3c3ccnc2c31` [MW01, 5-Hydroxy-10,11-dimethoxy-9H-benzo[c]indolo[3,2,1-ij][1,5]naphthyridin-9-one], the inhibition at 1 µM at AKT3 (PKB gamma) (setting [1]) turned out to be 7%; at MAP4K2 (GCK) (setting [1]) it was 50%; at IRAK4 (setting [1]), 19%; on AKT2 (PKB beta) (setting [1]) it was 1%; on FRAP1 (mTOR) (setting [1]), 31%; on DYRK1B (setting [1]), 62%. Moreover, the inhibition at 1 µM on PIP4K2A (setting [1]) was -8%; at DNA-PK (setting [1]), 86%; at EGFR (ErbB1) (setting [1]) it was 17%. Also, the inhibition at 10 µM on AKT3 (PKB gamma) (setting [2]) was found to be 18%; at MAP4K2 (GCK) (setting [2]), 77%; at IRAK4 (setting [2]), 50%; on AKT2 (PKB beta) (setting [2]), 9%; at FRAP1 (mTOR) (setting [2]) it was 80%; on DYRK1B (setting [2]), 82%. Besides, the inhibition at 10 µM on PIP4K2A (setting [2]) is -3%; on DNA-PK (setting [2]) it was 96%; at EGFR (ErbB1) (setting [2]), 0%. The same molecule showed a half-inhibitory concentration (IC50) against FRAP1 (mTOR) (setting [3]) of at least 2000 nM.
`COc1ccc2c(c1)c1ccnc3c4nc(OC)ccc4c(=O)n2c13` [MW01-E6, 5,15-dimethoxy-1,11,14-triazapentacyclo[10.7.1,0^2,7.0^8,^20.0^13,^18]icosa-2(7),3,5,8(20),9,11,13(18),14,16-nonaen-19-one]: the inhibition at 10 µM at AKT3 (PKB gamma) (setting [4]) was 12%; on MAP4K2 (GCK) (setting [5]) it was 70%; at IRAK4 (setting [6]), -9%; on AKT2 (PKB beta) (setting [7]) it was 4%; on FRAP1 (mTOR) (setting [8]), 12%; on DYRK1B (setting [9]), 20%. For the same molecule, the inhibition at 10 µM was -4% on PIP4K2A (setting [10]), 9% at DNA-PK (setting [11]) and 11% on EGFR (ErbB1) (setting [12]).
For the molecule `O=c1c2cc(O)ccc2c2nccc3c4cc(O)ccc4n1c32` [MW01-E10, 5,16-dihydroxy-1,11-diazapentacyclo[10.7.1.0^2,^7.0^8,^20.0^13,^18]icosa-2(7),3,5,8(20),9,11,13(18),14,16-nonaen-19-one], the inhibition at 10 µM at AKT3 (PKB gamma) (setting [4]) is 24%; on MAP4K2 (GCK) (setting [5]), 98%; on IRAK4 (setting [6]) it was -186%; at AKT2 (PKB beta) (setting [7]), 18%; at FRAP1 (mTOR) (setting [8]), 42%; at DYRK1B (setting [9]) it was 81%. Also, the results for the inhibition at 10 µM at PIP4K2A (setting [10]), on DNA-PK (setting [11]) and at EGFR (ErbB1) (setting [12]) were -2%, 62% and 15%, respectively.
Turning to `COc1ccc2c(c1)c1ccnc3c4ccnc(OC)c4c(=O)n2c13` [MW01-E14, 5,17-dimethoxy-1,11,16-triazapentacyclo[10.7.1.0^2,^7.0^8,^20.0^13,^18]icosa-2(7),3,5,8(20),9,11,13(18),14,16-nonaen-19-one], the inhibition at 10 µM at AKT3 (PKB gamma) (setting [4]) was 23%; at MAP4K2 (GCK) (setting [5]), 81%; on IRAK4 (setting [6]) it was -15%; on AKT2 (PKB beta) (setting [7]), 14%; at FRAP1 (mTOR) (setting [8]) it was 26%; on DYRK1B (setting [9]), 23%. For the same molecule, the figures for the inhibition at 10 µM at PIP4K2A (setting [10]), at DNA-PK (setting [11]) and on EGFR (ErbB1) (setting [12]) were 53%, 43% and 9%, respectively.
Take `O=c1c2cnccc2c2nccc3c4cc(O)ccc4n1c32` [MW01-E18, 5-hydroxy-1,11,16-triazapentacyclo[10.7.1.0^2,^7.0^8,^20.0^13,^18]icosa-2(7),3,5,8(20),9,11,13(18),14,16-nonaen-19-one]: the inhibition at 10 µM at AKT3 (PKB gamma) (setting [4]) amounted to 19%; on MAP4K2 (GCK) (setting [5]) it was 93%; on IRAK4 (setting [6]) it was 2%; at AKT2 (PKB beta) (setting [7]) it was 3%; on FRAP1 (mTOR) (setting [8]) it was 43%; at DYRK1B (setting [9]) it was 68%. Besides, the inhibition at 10 µM on PIP4K2A (setting [10]) was -1%; at DNA-PK (setting [11]), 94%; on EGFR (ErbB1) (setting [12]) it was 14%.
With `COc1ccc2cc3c(N)nn(C(=O)c4cccc(N(C)C)c4)c3nc2c1` [MW05, (3-Amino-7-methoxypyrazolo[3,4-b]quinolin-1-yl)-[3-(dimethylamino)phenyl]methanone], the inhibition at 1 µM worked out at 4% on AKT3 (PKB gamma) (setting [1]); 13% at MAP4K2 (GCK) (setting [1]); 0% on IRAK4 (setting [1]); 10% on AKT2 (PKB beta) (setting [1]); 31% at FRAP1 (mTOR) (setting [1]); 28% at DYRK1B (setting [1]). Moreover, the inhibition at 1 µM on PIP4K2A (setting [1]) was -10%; on DNA-PK (setting [1]), 30%; on EGFR (ErbB1) (setting [1]), 13%. In addition, the inhibition at 10 µM was -6% on AKT3 (PKB gamma) (setting [2]); 10% at MAP4K2 (GCK) (setting [2]); 2% on IRAK4 (setting [2]); -8% on AKT2 (PKB beta) (setting [2]); 81% at FRAP1 (mTOR) (setting [2]); 69% on DYRK1B (setting [2]). In addition, the inhibition at 10 µM at PIP4K2A (setting [2]) is -9%; on DNA-PK (setting [2]) it was 61%; on EGFR (ErbB1) (setting [2]) it was 5%. On DNA-PK (setting [3]), this molecule displayed an IC50 of at least 2000 nM.
